pIC50: −log10 of the molar value.

For this assay, the target named is T1, human CCR6 (Homo sapiens, UniProt P51684).
T1 construct: expressed in transfected cells; host or cells: Ba/F3 cells (mouse pro-B line)
T1 sequence (P51684 1-374): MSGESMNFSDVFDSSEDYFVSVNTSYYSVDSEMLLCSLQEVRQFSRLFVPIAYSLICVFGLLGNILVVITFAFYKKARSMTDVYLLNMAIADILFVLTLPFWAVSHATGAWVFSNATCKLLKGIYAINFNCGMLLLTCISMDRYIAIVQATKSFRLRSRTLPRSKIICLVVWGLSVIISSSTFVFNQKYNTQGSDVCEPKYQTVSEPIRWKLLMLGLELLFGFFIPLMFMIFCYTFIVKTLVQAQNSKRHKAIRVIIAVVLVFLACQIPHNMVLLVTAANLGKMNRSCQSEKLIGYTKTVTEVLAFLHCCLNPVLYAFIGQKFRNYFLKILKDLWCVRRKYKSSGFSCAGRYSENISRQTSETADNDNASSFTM
The assay can be described thus: Migration assay (chemotaxis, ChemoTX). It counts as cell-based. The note with it: hCCR6-transfected Ba/F3 cells in human serum, migration to recombinant human CCL20 10 nM, 37° C. 45 minutes; read-out: Potency (IC50 value in the migration assay). The source says:
A chemotaxis assay can be used to determine the efficacy of potential receptor antagonists at blocking the migration mediated through chemokine receptors, such as CCR6. This assay is routinely performed using the ChemoTX® microchamber system with a 5-μm pore-sized polycarbonate membrane. Chemokine receptor-expressing cells are required for such an assay. In this case, Ba/F3 cells (Palacios et al., Nature, 309:126, 1984) transfected with the gene for human CCR6 under control of the CMV promotor were used. To begin such an assay, hCCR6-transfected Ba/F3 cells are first grown for 24 hr in medium supplemented with sodium butyrate, which increases CCR6 transcription via the CMV promotor. The prepared Ba/F3 cells, are collected by centrifugation at 400×g at room temperature, then suspended at 4 million/ml in human serum. The compound being tested is serially diluted from a maximum final concentration of 1 μM (or an equivalent volume of its solvent (DMSO)) and is then added to the cell/serum mixture. Separately, recombinant human CCL20 (MIP-3α/LARC) at its EC50 concentration (10 nM) is placed in the lower wells of the ChemoTX® plate. The 5-μm (pore size) polycarbonate membrane is placed onto the plate, and 20 μL of the cell/compound mixture is transferred onto each well of the membrane. The plates are incubated at 37° C. for 45 minutes, after which the polycarbonate membranes are removed and 5 μl of the DNA-intercalating dye CyQUANT (Invitrogen, Carlsbad, CA) is added to the lower wells. The amount of fluorescence, corresponding to the number of migrated cells, is measured using a Spectrafluor Plus plate reader (TECAN, San Jose, CA).
For `NC(=O)c1cc(-c2ccc(S(=O)(=O)N3CC[C@@H](Nc4ncc(C(F)(F)F)cn4)[C@@H](O)C3)cc2)ccn1` [Compound 86, 4-(4-(((3S,4R)-3-hydroxy-4-((5-(trifluoromethyl)pyrimidin-2-yl)amino)piperidin-1-yl)sulfonyl)phenyl)picolinamide], the pIC50 was 6.00 to 8.00.

As to `NC(=O)c1cc(-c2ccc(S(=O)(=O)N3CC[C@@H](Nc4ccc(Cl)cn4)[C@@H](O)C3)cc2)ccn1` [Compound 87], the pIC50 was greater than 9.00. With `O=C1CNCCN1c1cc(-c2ccc(S(=O)(=O)N3CC[C@@H](Nc4ccc(C(F)(F)F)cn4)[C@@H](O)C3)cc2)ccn1` [Compound 88, 1-(4-(4-(((3S,4R)-3-hydroxy-4-((5-(trifluoromethyl)pyridin-2-yl)amino)piperidin-1-yl)sulfonyl)phenyl)pyridin-2-yl)piperazin-2-one], the pIC50 is 8.00 to 9.00.

Turning to `O=S(=O)(c1ccc(-c2ccc(N3CCOCC3)nc2)cc1)N1CC[C@@H](Nc2ccc(C(F)(F)F)cn2)[C@@H](O)C1` [Compound 89, (3S,4R)-1-((4-(6-morpholinopyridin-3-yl)phenyl)sulfonyl)-4-((5-(trifluoromethyl)pyridin-2-yl)amino)piperidin-3-ol], the pIC50 is greater than 9.00. With `O=S(=O)(c1ccc(-c2ccnc(N3CCCC3)c2)cc1)N1CC[C@@H](Nc2ccc(C(F)(F)F)cn2)[C@@H](O)C1` [Compound 90, (3S,4R)-1-((4-(2-(pyrrolidin-1-yl)pyridin-4-yl)phenyl)sulfonyl)-4-((5-(trifluoromethyl)pyridin-2-yl)amino)piperidin-3-ol] the figure was greater than 9.00.

For `CN(C)[C@H]1C[C@H](Nc2ccc(-c3ccc(S(=O)(=O)N4CC[C@@H](Nc5ccc(C(F)(F)F)cn5)[C@@H](O)C4)cc3)cn2)C1` [Compound 91], the pIC50 is 8.00 to 9.00. With `CC(C)(O)C1CN(c2ccc(-c3ccc(S(=O)(=O)N4CC[C@@H](Nc5ccc(C(F)(F)F)cn5)[C@@H](O)C4)cc3)cn2)C1` [Compound 92] the figure was greater than 9.00; with `O=S(=O)(c1ccc(-c2ccc(N3CC4(COC4)C3)nc2)cc1)N1CC[C@@H](Nc2ccc(C(F)(F)F)cn2)[C@@H](O)C1` [Compound 93], greater than 9.00; with `N[C@H]1C[C@H](Nc2ccc(-c3ccc(S(=O)(=O)N4CC[C@@H](Nc5ccc(C(F)(F)F)cn5)[C@@H](O)C4)cc3)cn2)C1` [Compound 94], greater than 9.00.

Take `COC1CN(c2ccc(-c3ccc(S(=O)(=O)N4CC[C@@H](Nc5ccc(C(F)(F)F)cn5)[C@@H](O)C4)cc3)cn2)C1` [Compound 95]: the pIC50 was 8.00 to 9.00.

In the case of `CN(C)[C@H]1C[C@@H](Nc2ccc(-c3ccc(S(=O)(=O)N4CC[C@@H](Nc5ccc(C(F)(F)F)cn5)[C@@H](O)C4)cc3)cn2)C1` [Compound 96], the pIC50 was greater than 9.00.

Take `N[C@H]1C[C@@H](Nc2ccc(-c3ccc(S(=O)(=O)N4CC[C@@H](Nc5ccc(C(F)(F)F)cn5)[C@@H](O)C4)cc3)cn2)C1` [Compound 97]: the pIC50 was greater than 9.00. With `CN1CC(N(C)c2ccc(-c3ccc(S(=O)(=O)N4CC[C@@H](Nc5ccc(C(F)(F)F)cn5)[C@@H](O)C4)cc3)cn2)C1` [Compound 98] the figure was 8.00 to 9.00; with `CN1CC2(C1)CN(c1ccc(-c3ccc(S(=O)(=O)N4CC[C@@H](Nc5ccc(C(F)(F)F)cn5)[C@@H](O)C4)cc3)cn1)C2` [Compound 99], greater than 9.00; with `O=S(=O)(c1ccc(-c2ccc(N3CCC3)nc2)cc1)N1CC[C@@H](Nc2ccc(C(F)(F)F)cn2)[C@@H](O)C1` [Compound 100], greater than 9.00. Turning to `CN(C)CCN(C)c1ccc(-c2ccc(S(=O)(=O)N3CC[C@@H](Nc4ccc(C(F)(F)F)cn4)[C@@H](O)C3)cc2)cn1` [Compound 101], the pIC50 is 6.00 to 8.00. With `CN(c1ccc(-c2ccc(S(=O)(=O)N3CC[C@@H](Nc4ccc(C(F)(F)F)cn4)[C@@H](O)C3)cc2)cn1)C1CCC1` [Compound 102] the figure was 8.00 to 9.00; with `O=S(=O)(c1ccc(-c2ccc(NC3CCC3)nc2)cc1)N1CC[C@@H](Nc2ccc(C(F)(F)F)cn2)[C@@H](O)C1` [Compound 103], 8.00 to 9.00. The value for `O=S(=O)(c1ccc(-c2ccc(N3CC4(CNC4)C3)nc2)cc1)N1CC[C@@H](Nc2ccc(C(F)(F)F)cn2)[C@@H](O)C1` [Compound 104] was greater than 9.00. With `CN(C)C1CCN(c2ccc(-c3ccc(S(=O)(=O)N4CC[C@@H](Nc5ccc(C(F)(F)F)cn5)[C@@H](O)C4)cc3)cn2)CC1` [Compound 105] the figure was 8.00 to 9.00. For `NC1CCN(c2ccc(-c3ccc(S(=O)(=O)N4CC[C@@H](Nc5ccc(C(F)(F)F)cn5)[C@@H](O)C4)cc3)cn2)CC1` [Compound 106], the pIC50 is greater than 9.00. The value for `CN(C)C1CN(c2ccc(-c3ccc(S(=O)(=O)N4CC[C@@H](Nc5ccc(C(F)(F)F)cn5)[C@@H](O)C4)cc3)cn2)C1` [Compound 107] was 8.00 to 9.00.

`CN1CCN(c2cncc(-c3ccc(S(=O)(=O)N4CC[C@@H](Nc5ccc(C(F)(F)F)cn5)[C@@H](O)C4)cc3)c2)CC1` [Compound 108]: the pIC50 was greater than 9.00. `O=S(=O)(c1ccc(-c2ccc(N3CCCCC3)nc2)cc1)N1CC[C@@H](Nc2ccc(C(F)(F)F)cn2)[C@@H](O)C1` [Compound 109]: the pIC50 is 8.00 to 9.00. With `Nc1cncc(-c2ccc(S(=O)(=O)N3CC[C@@H](Nc4ccc(C(F)(F)F)cn4)[C@@H](O)C3)cc2)c1` [Compound 110] the figure was greater than 9.00; with `CN(C)c1cncc(-c2ccc(S(=O)(=O)N3CC[C@@H](Nc4ccc(C(F)(F)F)cn4)[C@@H](O)C3)cc2)c1` [Compound 111], greater than 9.00.

As for `CN(C)c1ccc(-c2ccc(S(=O)(=O)N3CC[C@@H](Nc4ccc(C(F)(F)F)cn4)[C@@H](O)C3)cc2)cn1` [Compound 112], the pIC50 was greater than 9.00. With `CN1CCN(c2cc(-c3ccc(S(=O)(=O)N4CC[C@@H](Nc5ccc(C(F)(F)F)cn5)[C@@H](O)C4)cc3)ccn2)CC1` [Compound 113] the figure was 6.00 to 8.00; with `O=S(=O)(c1ccc(-c2ccc(N3CCNCC3)nc2)cc1)N1CC[C@@H](Nc2ccc(C(F)(F)F)cn2)[C@@H](O)C1` [Compound 114], 8.00 to 9.00. The value for `CN1CCN(c2ccc(-c3ccc(S(=O)(=O)N4CC[C@@H](Nc5ccc(C(F)(F)F)cn5)[C@@H](O)C4)cc3)cn2)CC1` [Compound 115] was greater than 9.00. The value for `Cc1ccnc(C)c1-c1ccc(S(=O)(=O)N2CC[C@@H](Nc3ccc(C(F)(F)F)cn3)[C@@H](O)C2)cc1` [Compound 116] was greater than 9.00; that for `NC(=O)c1cccc(-c2ccc(S(=O)(=O)N3CC[C@@H](Nc4ccc(C(F)(F)F)cn4)[C@@H](O)C3)cc2)c1` [Compound 117] was greater than 9.00. In the case of `COc1c(-c2ccc(S(=O)(=O)N3CC[C@@H](Nc4ccc(C(F)(F)F)cn4)[C@@H](O)C3)cc2)cnc2[nH]cc(C#N)c12` [Compound 118], the pIC50 is greater than 9.00. With `O=S(=O)(c1ccc(-c2cnc3[nH]ccc3c2F)cc1)N1CC[C@@H](Nc2ccc(C(F)(F)F)cn2)[C@@H](O)C1` [Compound 119] the figure was greater than 9.00; with `O=S(=O)(c1ccc(-c2cc(F)c3[nH]ncc3c2)cc1)N1CC[C@@H](Nc2ccc(C(F)(F)F)cn2)[C@@H](O)C1` [Compound 120], greater than 9.00. With `Cc1cc(-c2ccc(S(=O)(=O)N3CC[C@@H](Nc4ccc(C(F)(F)F)cn4)[C@@H](O)C3)cc2)cc2c(C#N)nn(C)c12` [Compound 121] the figure was greater than 9.00; with `COc1cc(-c2ccc(S(=O)(=O)N3CC[C@@H](Nc4ccc(C(F)(F)F)cn4)[C@@H](O)C3)cc2)cc2c(C#N)n[nH]c12` [Compound 122], greater than 9.00; with `Cc1cc(-c2ccc(S(=O)(=O)N3CC[C@@H](Nc4ccc(C(F)(F)F)cn4)[C@@H](O)C3)cc2)cc2cnn(C)c12` [Compound 123], greater than 9.00. The value for `CN(C)c1cc(-c2ccc(S(=O)(=O)N3CC[C@@H](Nc4ccc(C(F)(F)F)cn4)[C@@H](O)C3)cc2)ccn1` [Compound 124] was 8.00 to 9.00. For the molecule `CNc1cc(-c2ccc(S(=O)(=O)N3CC[C@@H](Nc4ccc(C(F)(F)F)cn4)[C@@H](O)C3)cc2)ccn1` [Compound 125], the pIC50 is 8.00 to 9.00.

On to `Nc1cc(-c2ccc(S(=O)(=O)N3CC[C@@H](Nc4ccc(C(F)(F)F)cn4)[C@@H](O)C3)cc2)ccn1` [Compound 126], for which the pIC50 was 8.00 to 9.00. The value for `O=C1C[C@H](Nc2cc(-c3ccc(S(=O)(=O)N4CC[C@@H](Nc5ccc(C(F)(F)F)cn5)[C@@H](O)C4)cc3)ccn2)CN1` [Compound 127] was 8.00 to 9.00.

Source of the values: patent US12018016B2, “Aryl sulfonyl (hydroxy) piperidines as CCR6 inhibitors” (CHEMOCENTRYX, INC., priority 2021, dated 2024).
